Laboratory results: the supplement of paper PMC5908809

Experiments:
Assay in all cases: relative IC50 (inflection point of fitted viability curve, relative to fitted max inhibition); higher = less sensitive
Settings in all cases: 72 h
[1] = test system: DERL-7 (IL-2 2.5 ng/mL)
Procedure: (§1)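 Drug sensitivity and resistance testing: 5 concentrations over a 10,000-fold range, 72 h at 37 °C, viability by CellTiter-Glo normalised to DMSO and benzethonium chloride controls. IC50 is the inflection point of a logistic fit (min fixed at 0, max fitted), so it is relative to the fitted maximal inhibition. Kept only where fitted max inhibition is at least 50%.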

[2] = test system: IMC-1 (IL-2 20 ng/mL)
Procedure: as §1

[3] = test system: KAI3 (IL-2 2.5 ng/mL)
Procedure: as §1

[4] = test system: KHYG-1 (IL-2 2.5 ng/mL)
Procedure: as §1

[5] = test system: NK-92 (IL-2 2.5 ng/mL)
Procedure: as §1

[6] = test system: NK-YS (IL-2 2.5 ng/mL)
Procedure: as §1

[7] = test system: NKL (IL-2 2.5 ng/mL)
Procedure: as §1

[8] = test system: SNK-6 (IL-2 2.5 ng/mL)
Procedure: as §1

[9] = test system: YT (IL-2 2.5 ng/mL)
Procedure: as §1

[10] = test system: normal primary NK cells, pool 1 (3 donors) (IL-2 2.5 ng/mL)
Procedure: as §1

[11] = test system: normal primary NK cells, pool 1 (3 donors), resting (IL-2 0 ng/mL)
Procedure: as §1

[12] = test system: normal primary NK cells, pool 2 (3 donors) (IL-2 2.5 ng/mL)
Procedure: as §1

[13] = test system: normal primary NK cells, pool 3 (3 donors) (IL-2 2.5 ng/mL)
Procedure: as §1

SMILES	relative IC50 [1]	relative IC50 [2]	relative IC50 [3]	relative IC50 [4]	relative IC50 [5]	relative IC50 [6]	relative IC50 [7]	relative IC50 [8]	relative IC50 [9]	relative IC50 [10]	relative IC50 [11]	relative IC50 [12]	relative IC50 [13]
Nc1nc(Cl)nc2c1ncn2[C@H]1C[C@H](O)[C@@H](CO)O1 [Cladribine]	49.7 nM	86 nM	75.9 nM	30.5 nM	34.5 nM	245 nM	34.2 nM	49.2 nM	235 nM	17.6 nM	7.37 nM	16.1 nM	24.8 nM
C=CCNC1=C2C[C@@H](C)C[C@H](OC)[C@H](O)[C@@H](C)/C=C(\C)[C@H](OC(N)=O)[C@@H](OC)/C=C\C=C(/C)C(=O)NC(=CC1=O)C2=O [Tanespimycin]	126 nM	291 nM	76.3 nM	247 nM	123 nM	80.2 nM	59.1 nM	106 nM	248 nM	79.8 nM	145 nM	127 nM	290 nM
C[C@@H](Oc1cc(-n2cnc3ccc(CN4CCN(C)CC4)cc32)sc1C(N)=O)c1ccccc1C(F)(F)F	27.8 nM	37.1 nM	187 nM	17.1 nM	7.34 nM	90.5 nM	46 nM	32.2 nM	53 nM	1780 nM	374 nM	1640 nM	2340 nM
CC(C)c1cc(-c2n[nH]c(=O)n2-c2ccc3c(ccn3C)c2)c(O)cc1O [Ganetespib]	5.92 nM	32.3 nM	11.8 nM	27.4 nM	16.8 nM	13.1 nM	10.4 nM	28.3 nM	35.8 nM	5.67 nM	6.18 nM	5.41 nM	9 nM
COCC[n+]1c2c(n(Cc3cnccn3)c1C)C(=O)c1ccccc1C2=O [YM155]	9.75 nM	< 1 nM	10 nM	17.1 nM	17.8 nM	15.5 nM	3.09 nM	32.5 nM	7.77 nM	691 nM	209 nM	780 nM	1330 nM
CCCCc1nc2cc(/C=C/C(=O)NO)ccc2n1CCN(CC)CC [Pracinostat]	168 nM	233 nM	69 nM	149 nM	112 nM	189 nM	76.5 nM	207 nM	213 nM	163 nM	93.7 nM	159 nM	211 nM
COc1ccc(CCc2nc3cc(-c4c(C)noc4C)ccc3n2C[C@H](C)N2CCOCC2)cc1Cl [SGC-CBP30]	1490 nM		10100 nM	4750 nM	10200 nM	3300 nM	1570 nM		5050 nM	3540 nM	4340 nM	3830 nM	5310 nM
Nc1ccn([C@@H]2O[C@H](CO)[C@@H](O)[C@@H]2O)c(=O)n1 [Cytarabine]	23 nM	85.5 nM	50 nM	27.3 nM	96 nM	330 nM	67.1 nM	193 nM		1440 nM	1230 nM	1900 nM	2370 nM
c1ccc2c(CCNc3ccc(Nc4ccncc4)cc3)c[nH]c2c1 [Serdemetan]	329 nM	2580 nM	436 nM	1670 nM	1790 nM	880 nM	212 nM	2980 nM	1820 nM	914 nM	516 nM	1260 nM	1140 nM
COc1cc2c(NC3CCN(C(C)C)CC3)nc(N3CCC(F)(F)CC3)nc2cc1OCCCN1CCCC1 [UNC0642]	3160 nM	2450 nM	987 nM			2440 nM	1640 nM	1530 nM	2690 nM	1810 nM	1560 nM	3390 nM	3450 nM
C=CCc1cccc(/C=N/NC(=O)CN2CCN(Cc3ccccc3)CC2)c1O [PAC-1]	1980 nM	3020 nM	679 nM	543 nM	845 nM	2740 nM	591 nM	996 nM	1620 nM	2890 nM	3350 nM	2050 nM	1910 nM
NC(=O)N1CCC(CC(=O)N2CCC([C@H]3c4ncc(Br)cc4CCc4cc(Cl)cc(Br)c43)CC2)CC1 [Lonafarnib]	708 nM			492 nM	718 nM	450 nM			1060 nM	1660 nM	693 nM	1580 nM	1860 nM
C#Cc1cccc(Nc2ncnc3cc(OC)c(OCCCCCCC(=O)NO)cc23)c1 [CUDC-101]	177 nM	1020 nM	270 nM	131 nM	277 nM	889 nM	412 nM	276 nM	267 nM	293 nM	198 nM	347 nM	504 nM
N#CC[C@H](C1CCCC1)n1cc(-c2ncnc3[nH]ccc23)cn1 [Ruxolitinib]	45.4 nM	780 nM	17.1 nM	21.9 nM	55.7 nM	85.1 nM	15.8 nM	31.1 nM	142 nM	69 nM		43.7 nM	80.4 nM
CC(C)(C)c1cnc(CSc2cnc(NC(=O)C3CCNCC3)s2)o1 [SNS-032]	61.3 nM	36.2 nM	75.8 nM	277 nM	224 nM	38.6 nM	22.6 nM	74.8 nM	84.1 nM	45.8 nM	53.4 nM	54.3 nM	102 nM
CCCCC(=O)OCC(=O)[C@]1(O)Cc2c(O)c3c(c(O)c2[C@@H](O[C@H]2C[C@H](NC(=O)C(F)(F)F)[C@H](O)[C@H](C)O2)C1)C(=O)c1c(OC)cccc1C3=O [Valrubicin]	63.4 nM	96 nM	80.7 nM	164 nM	160 nM	75.1 nM	6.61 nM	88.1 nM	235 nM	256 nM	179 nM	245 nM	381 nM
Nc1nc(F)nc2c1ncn2[C@@H]1O[C@H](CO)[C@@H](O)[C@@H]1O [Fludarabine]	3720 nM	3130 nM	2250 nM	2630 nM	1560 nM		895 nM			996 nM	491 nM	957 nM	1360 nM
O=C(/C=C/c1cccc(S(=O)(=O)Nc2ccccc2)c1)NO [Belinostat]	161 nM	173 nM	82.5 nM	128 nM	81.7 nM	182 nM	152 nM	156 nM	213 nM	113 nM	83.9 nM	143 nM	200 nM
Cc1ccc(NC(=O)c2ccc(CN3CCN(C)CC3)cc2)cc1Nc1nc(-c2cccnc2)cs1 [Masitinib]	2000 nM	3320 nM	2970 nM	2690 nM	3690 nM	2010 nM	3390 nM	4530 nM	2490 nM	3230 nM	3340 nM	3500 nM	3230 nM
Nc1ccccc1NC(=O)c1ccc(CNC(=O)OCc2cccnc2)cc1 [Entinostat]	1570 nM	2330 nM	399 nM	954 nM	479 nM	1680 nM	494 nM	456 nM	2460 nM	1330 nM	582 nM	1530 nM	2910 nM
CN1CCC(CNc2ccc3ncc(-c4cccc(OC(F)(F)F)c4)n3n2)CC1 [SGI-1776]	1120 nM	3130 nM	2000 nM	2210 nM	2480 nM	2450 nM	1780 nM	3220 nM	2540 nM	2200 nM	1580 nM	1590 nM	2520 nM
COc1cccc2c1C(=O)c1c(O)c3c(c(O)c1C2=O)C[C@@](O)(C(=O)CO)C[C@@H]3O[C@H]1C[C@H](N)[C@H](O)[C@H](C)O1 [Doxorubicin]	32.3 nM	45.3 nM	27.2 nM	56.7 nM	76.2 nM	29.4 nM	4.41 nM	41.2 nM	69.6 nM	118 nM	59.9 nM	119 nM	159 nM
COc1ccc(C2=N[C@@H](c3ccc(Cl)cc3)[C@@H](c3ccc(Cl)cc3)N2C(=O)N2CCNC(=O)C2)c(OC(C)C)c1 [Nutlin-3]	1470 nM		731 nM			1090 nM		1010 nM	1440 nM	1490 nM	442 nM	1960 nM	2750 nM
O=C(Nc1ccc(-c2ccnc(Nc3ccc(N4CCOCC4)cc3)n2)cc1)C1CCCN1 (stereo not given) [XL019]	1370 nM	3200 nM	1660 nM	2490 nM			658 nM			2220 nM	1380 nM	1510 nM	1870 nM
COc1c(C)cnc(Cn2cnc3c(Cl)nc(N)nc32)c1C [BIIB021]	68.4 nM	150 nM	54.3 nM	61.8 nM	97.5 nM	79.6 nM	95.7 nM	33.9 nM	98.2 nM	181 nM	226 nM	104 nM	254 nM
CC(C)C[C@H](NC(=O)[C@H](Cc1ccccc1)NC(=O)c1cnccn1)B(O)O [Bortezomib]	1.69 nM	3.34 nM	3.07 nM	2.94 nM	3.32 nM	3.04 nM	3.28 nM	2.15 nM	2.97 nM	3.62 nM	4.7 nM	3.28 nM	3.62 nM
CNC(=O)c1cc(Oc2ccc(NC(=O)Nc3ccc(Cl)c(C(F)(F)F)c3)c(F)c2)ccn1 [Regorafenib]	1190 nM		3360 nM	2130 nM	1040 nM	1620 nM	1570 nM	86.7 nM	1660 nM	3020 nM	1940 nM	1750 nM	
CC[C@H](NC(=O)[C@H](C)NC)C(=O)N1C[C@@H](O)C[C@H]1Cc1c(-c2[nH]c3cc(F)ccc3c2C[C@@H]2C[C@H](O)CN2C(=O)[C@H](CC)NC(=O)[C@H](C)NC)[nH]c2cc(F)ccc12 [Birinapant]						> 1000 nM		> 1000 nM		311 nM	338 nM	278 nM	
COc1cc(OC2CCN(C)CC2)ccc1Nc1ncc2c(n1)n(C1CCCC1)c(=O)n2C [AZ 3146]	2330 nM	2400 nM	1580 nM	2060 nM	3770 nM	1720 nM	2070 nM	1870 nM	2020 nM	3160 nM	2250 nM	2410 nM	2660 nM
CC(C)[C@H]1C(=O)N[C@@H](CCCNC(=N)N)C(=O)NCC(=O)N[C@@H](CC(=O)O)C(=O)N[C@H](Cc2ccccc2)C(=O)N1C [Cilengitide]		> 10000 nM		> 10000 nM	> 10000 nM		> 10000 nM		> 10000 nM	> 10000 nM	> 10000 nM	> 10000 nM	> 10000 nM
